Patent US9932331B2, “Phenyl tetrahydroisoquinoline compound substituted with heteroaryl” (TAISHO PHARMACEUTICAL CO., LTD, priority 2014, dated 2018)
Counter-ions that a name gives are not always drawn.

Target: T1, human NHE3 (Homo sapiens, UniProt P48764)
T1 sequence (P48764 26-834): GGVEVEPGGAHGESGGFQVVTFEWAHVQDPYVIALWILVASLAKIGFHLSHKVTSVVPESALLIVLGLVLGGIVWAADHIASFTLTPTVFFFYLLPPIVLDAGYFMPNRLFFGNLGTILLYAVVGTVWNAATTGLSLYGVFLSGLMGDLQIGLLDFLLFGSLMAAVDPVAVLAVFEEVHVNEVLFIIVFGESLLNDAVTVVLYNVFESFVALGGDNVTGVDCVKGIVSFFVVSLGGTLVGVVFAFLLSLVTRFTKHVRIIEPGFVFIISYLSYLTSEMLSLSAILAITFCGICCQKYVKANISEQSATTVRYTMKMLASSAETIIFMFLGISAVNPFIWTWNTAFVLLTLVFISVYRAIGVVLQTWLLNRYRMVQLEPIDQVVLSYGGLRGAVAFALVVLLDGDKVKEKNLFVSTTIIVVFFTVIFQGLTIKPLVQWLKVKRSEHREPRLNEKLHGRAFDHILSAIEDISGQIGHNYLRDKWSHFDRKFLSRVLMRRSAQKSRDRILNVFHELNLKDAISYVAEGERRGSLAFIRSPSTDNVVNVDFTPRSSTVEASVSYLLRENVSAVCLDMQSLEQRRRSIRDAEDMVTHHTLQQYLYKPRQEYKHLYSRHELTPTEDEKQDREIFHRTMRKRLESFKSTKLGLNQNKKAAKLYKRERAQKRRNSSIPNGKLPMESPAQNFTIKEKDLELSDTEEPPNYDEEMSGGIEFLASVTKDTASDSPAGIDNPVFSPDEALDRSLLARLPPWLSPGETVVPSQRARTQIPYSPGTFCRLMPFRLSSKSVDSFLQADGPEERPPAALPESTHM
Experiment: NHE3 inhibition test (recovery of intracellular pH in cell line stably expressing human NHE3)
Format: cell-based
Details: OK cells deficient in endogenous NHE stably expressing human NHE3; BCECF fluorescence, initial rate of pH recovery; read-out: human NHE3 inhibitory activity IC50
Outline: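 IC50 is the concentration halving the initial rate of Na-triggered intracellular pH recovery, tracked by BCECF fluorescence, in NH4Cl-acidified cells. Cells: NHE-deficient OK line stably transfected with human NHE3; compound added in Na-free pH 7.4 buffer.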

Row | Structure (SMILES) | IC50 [nM]
1 | CN1Cc2c(Cl)cc(Cl)cc2[C@H](c2cccc(-c3ccc(NCCOCCOCCNC(=O)[C@H](O)[C@@H](O)C(=O)NCCOCCOCCNc4ccc(-c5cccc([C@@H]6CN(C)Cc7c(Cl)cc(Cl)cc76)c5)cn4)nc3)c2)C1 [Example 8-2, (2R,3R)-N,N′-Bis[2-(2-{2-[(5-{3-[(4S)-6,8-dichloro-2-methyl-1,2,3,4-tetrahydroisoquinolin-4-yl]phenyl}pyridin-2-yl)amino]ethoxy}ethoxy)ethyl]-2,3-dihydroxybutanediamide hydrochloride] | 10.7
2 | CN1Cc2c(Cl)cc(Cl)cc2[C@H](c2cccc(-c3ccc(NCCOCCOCCNC(=O)CCCCC(=O)NCCOCCOCCNc4ccc(-c5cccc([C@@H]6CN(C)Cc7c(Cl)cc(Cl)cc76)c5)cn4)nc3)c2)C1 [Example 8-3, N,N′-Bis[2-(2-{2-[(5-{3-[(4S)-6,8-dichloro-2-methyl-1,2,3,4-tetrahydroisoquinolin-4-yl]phenyl}pyridin-2-yl)amino]ethoxy}ethoxy)ethyl]hexanediamide hydrochloride] | 13.2
3 | CN1Cc2c(Cl)cc(Cl)cc2[C@H](c2cccc(-c3ccc(NCCOCCOCCNC(=O)c4ccccc4C(=O)NCCOCCOCCNc4ccc(-c5cccc([C@@H]6CN(C)Cc7c(Cl)cc(Cl)cc76)c5)cn4)nc3)c2)C1 [Example 8-4, N,N′-Bis[2-(2-{2-[(5-{3-[(4S)-6,8-dichloro-2-methyl-1,2,3,4-tetrahydroisoquinolin-4-yl]phenyl}pyridin-2-yl)amino]ethoxy}ethoxy)ethyl]benzene-1,2-dicarboxamide hydrochloride] | 115
4 | CN1Cc2c(Cl)cc(Cl)cc2[C@H](c2cccc(-c3ccc(NCCOCCOCCNC(=O)COCC(=O)NCCOCCOCCNc4ccc(-c5cccc([C@@H]6CN(C)Cc7c(Cl)cc(Cl)cc76)c5)cn4)nc3)c2)C1 [Example 8-7, 1-[(5-{3-[(4S)-6,8-Dichloro-2-methyl-1,2,3,4-tetrahydroisoquinolin-4-yl]phenyl}pyridin-2-yl)amino]-N-[2-(2-{2-[(5-{3-[(4S)-6,8-dichloro-2-methyl-1,2,3,4-tetrahydroisoquinolin-4-yl]phenyl}pyridin-2-yl)amino]ethoxy}ethoxy)ethyl]-10-oxo-3,6,12-trioxa-9-azatetradecan-14-amide hydrochloride] | 41.7
5 | CN1Cc2c(Cl)cc(Cl)cc2[C@H](c2cccc(-c3cn(CCOCCOCCOCCNC(=O)[C@@H](O)[C@H](O)C(=O)NCCOCCOCCOCCn4cc(-c5cccc([C@@H]6CN(C)Cc7c(Cl)cc(Cl)cc76)c5)nn4)nn3)c2)C1 [Example 8-9, (2S,3S)-N,N′-Bis[2-(2-{2-[2-(4-{3-[(4S)-6,8-dichloro-2-methyl-1,2,3,4-tetrahydroisoquinolin-4-yl]phenyl}-1H-1,2,3-triazol-1-yl)ethoxy]ethoxy}ethoxy)ethyl]-2,3-dihydroxybutanediamide hydrochloride] | 3.6
6 | CN1Cc2c(Cl)cc(Cl)cc2[C@@H](c2cccc(-c3cc(NCCOCCOCCOCCNC(=O)COCC(=O)NCCOCCOCCOCCNc4cc(-c5cccc([C@@H]6CN(C)Cc7c(Cl)cc(Cl)cc76)c5)ncn4)ncn3)c2)C1 [Example 8-11, 1-[(6-{3-[(4R)-6,8-Dichloro-2-methyl-1,2,3,4-tetrahydroisoquinolin-4-yl]phenyl}pyrimidin-4-yl)amino]-N-{2-[2-(2-{2-[(6-{3-[(4S)-6,8-dichloro-2-methyl-1,2,3,4-tetrahydroisoquinolin-4-yl]phenyl}pyrimidin-4-yl)amino]ethoxy}ethoxy)ethoxy]ethyl}-13-oxo-3,6,9,15-tetraoxa-12-azaheptadecan-17-amide hydrochloride] | 7.5
7 | CN1Cc2c(Cl)cc(Cl)cc2[C@H](c2cccc(-c3cc(NCCOCCOCCOCCNC(=O)CCCCC(=O)NCCOCCOCCOCCNc4cc(-c5cccc([C@@H]6CN(C)Cc7c(Cl)cc(Cl)cc76)c5)ncn4)ncn3)c2)C1 [Example 8-13, N,N′-Bis{2-[2-(2-{2-[(6-{3-[(4S)-6,8-dichloro-2-methyl-1,2,3,4-tetrahydroisoquinolin-4-yl]phenyl}pyrimidin-4-yl)amino]ethoxy}ethoxy)ethoxy]ethyl}hexanediamide hydrochloride] | 10.6
8 | CN1Cc2c(Cl)cc(Cl)cc2[C@H](c2cccc(-c3cnnc(NCCOCCOCCOCCNC(=O)[C@H](O)[C@@H](O)C(=O)NCCOCCOCCOCCNc4cc(-c5cccc([C@@H]6CN(C)Cc7c(Cl)cc(Cl)cc76)c5)cnn4)c3)c2)C1 [Example 8-19, (2R,3R)-N,N′-Bis{2-[2-(2-{2-[(5-{3-[(4S)-6,8-dichloro-2-methyl-1,2,3,4-tetrahydroisoquinolin-4-yl]phenyl}pyridazin-3-yl)amino]ethoxy}ethoxy)ethoxy]ethyl}-2,3-dihydroxybutanediamide tetrahydrochloride] | 6.8
9 | CN1Cc2c(Cl)cc(Cl)cc2[C@H](c2cccc(-c3cc(OCCOCCOCCOCCNC(=O)CCC(=O)NCCOCCOCCOCCOc4cc(-c5cccc([C@@H]6CN(C)Cc7c(Cl)cc(Cl)cc76)c5)ncn4)ncn3)c2)C1 [Example 8-22, N,N′-Bis{2-[2-(2-{2-[(6-{3-[(4S)-6,8-dichloro-2-methyl-1,2,3,4-tetrahydroisoquinolin-4-yl]phenyl}pyrimidin-4-yl)oxy]ethoxy}ethoxy)ethoxy]ethyl}butanediamide hydrochloride] | 10.5
10 | CN1Cc2c(Cl)cc(Cl)cc2[C@H](c2cccc(-c3cc(OCCOCCOCCOCCNC(=O)CCCCC(=O)NCCOCCOCCOCCOc4cc(-c5cccc([C@@H]6CN(C)Cc7c(Cl)cc(Cl)cc76)c5)ncn4)ncn3)c2)C1 [Example 8-23, N,N′-Bis{2-[2-(2-{2-[(6-{3-[(4S)-6,8-dichloro-2-methyl-1,2,3,4-tetrahydroisoquinolin-4-yl]phenyl}pyrimidin-4-yl)oxy]ethoxy}ethoxy)ethoxy]ethyl}hexanediamide hydrochloride] | 4.7

The next compounds have a lower IC50 than those just listed; values first:

Row | IC50 [nM] | Structure (SMILES)
11 | 2.8 | CN1Cc2c(Cl)cc(Cl)cc2[C@H](c2cccc(-c3cn(CCOCCOCCOCCNC(=O)[C@H](O)[C@@H](O)C(=O)NCCOCCOCCOCCn4cc(-c5cccc([C@@H]6CN(C)Cc7c(Cl)cc(Cl)cc76)c5)nn4)nn3)c2)C1 [Example 8-5, (2R,3R)-N,N′-Bis[2-(2-{2-[2-(4-{3-[(4S)-6,8-dichloro-2-methyl-1,2,3,4-tetrahydroisoquinolin-4-yl]phenyl}-1H-1,2,3-triazol-1-yl)ethoxy]ethoxy}ethoxy)ethyl]-2,3-dihydroxybutanediamide hydrochloride]
12 | 3.2 | CN1Cc2c(Cl)cc(Cl)cc2[C@H](c2cccc(-c3cc(NCCOCCOCCOCCNC(=O)[C@H](O)[C@@H](O)C(=O)NCCOCCOCCOCCNc4cc(-c5cccc([C@@H]6CN(C)Cc7c(Cl)cc(Cl)cc76)c5)ncn4)ncn3)c2)C1 [Example 8-10, (2R,3R)-N,N′-Bis{2-[2-(2-{2-[(6-{3-[(4S)-6,8-dichloro-2-methyl-1,2,3,4-tetrahydroisoquinolin-4-yl]phenyl}pyrimidin-4-yl)amino]ethoxy}ethoxy)ethoxy]ethyl}-2,3-dihydroxybutanediamide hydrochloride]
13 | 1.9 | CN1Cc2c(Cl)cc(Cl)cc2[C@H](c2cccc(-c3nnc(CCOCCOCCOCCNC(=O)[C@H](O)[C@@H](O)C(=O)NCCOCCOCCOCCc4nnc(-c5cccc([C@@H]6CN(C)Cc7c(Cl)cc(Cl)cc76)c5)[nH]4)[nH]3)c2)C1 [Example 8-15, (2R,3R)-N,N′-Bis[2-(2-{2-[2-(5-{3-[(4S)-6,8-dichloro-2-methyl-1,2,3,4-tetrahydroisoquinolin-4-yl]phenyl}-4H-1,2,4-triazol-3-yl)ethoxy]ethoxy}ethoxy)ethyl]-2,3-dihydroxybutanediamide diformate]
14 | 3.2 | CN1Cc2c(Cl)cc(Cl)cc2[C@H](c2cccc(-c3cnc(NCCOCCOCCOCCNC(=O)[C@H](O)[C@@H](O)C(=O)NCCOCCOCCOCCNc4ncc(-c5cccc([C@@H]6CN(C)Cc7c(Cl)cc(Cl)cc76)c5)cn4)nc3)c2)C1 [Example 8-21, (2R,3R)-N,N′-Bis{2-[2-(2-{2-[(5-{3-[(4S)-6,8-dichloro-2-methyl-1,2,3,4-tetrahydroisoquinolin-4-yl]phenyl}pyrimidin-2-yl)amino]ethoxy}ethoxy)ethoxy]ethyl}-2,3-dihydroxybutanediamide formate]
15 | 3.4 | CN1Cc2c(Cl)cc(Cl)cc2[C@H](c2cccc(-c3nnc(CCOCCOCCOCCNC(=O)[C@@H](O)[C@H](O)[C@H](O)[C@@H](O)C(=O)NCCOCCOCCOCCc4nnc(-c5cccc([C@@H]6CN(C)Cc7c(Cl)cc(Cl)cc76)c5)[nH]4)[nH]3)c2)C1 [Example 8-24, (2R,3S,4R,5S)-N,N′-Bis[2-(2-{2-[2-(5-{3-[(4S)-6,8-dichloro-2-methyl-1,2,3,4-tetrahydroisoquinolin-4-yl]phenyl}-4H-1,2,4-triazol-3-yl)ethoxy]ethoxy}ethoxy)ethyl]-2,3,4,5-tetrahydroxyhexanediamide hydrochloride]
